Values quoted from earlier work as cited in US20100135908A1, “Delivery devices for modulating inflammation” (Searete LLC, a limited liability corporation of the state …, priority 2008, published 2010).

Experiments:
[1] = single agent, 400 mg infused over one hour
proteasome = conditions: cultured breast cancer cells; disulfiram bound to copper
[2] = tested on: Src family kinases (Src, Lck, Yes, Fyn); conditions: at nanomolar concentrations
[3] = mice

CCN(CC)CCCC(C)Nc1ccnc2cc(Cl)ccc12 (centres unmarked) [chloroquine]
inhibition of CpG-induced Src family kinase activation or its dependent cellular responses (Src family kinase): does not inhibit

CCN(CC)CCCC(C)Nc1ccnc2cc(Cl)ccc12.O=P(O)(O)O.O=P(O)(O)O (centres unmarked) [chloroquine phosphate, 7-chloro-4-[[4-(diethylamino)-1-methylbutyl]amino]quinoline phosphate (1:2)]
complications of intravenous infusion [1]: without complication

CCN(CC)C(=S)SSC(=S)N(CC)CC [disulfiram, 1-(diethylthiocarbamoyldisulfanyl)-N,N-diethyl-methanethioamide]
proteasomal activity (proteasome): inhibits proteasomal activity

Cc1nc(Nc2ncc(C(=O)Nc3c(C)cccc3Cl)s2)cc(N2CCN(CCO)CC2)n1.O [dasatinib, N-(2-chloro-6-methylphenyl)-2-[[6-[4-(2-hydroxyethyl)-1-piperazinyl]-2-methyl-4-pyrimidinyl]amino]-5-thiazolecarboxamide, monohydrate]
inhibition of Src family kinases (Src, Lck, Yes, Fyn) [2]: inhibits

Cl.Cl.Nc1ccccc1Oc1ccc2c(N)nsc2c1 [Example M62812, 3-amino-6-(2-aminophenoxy)-1,2-benzisothiazole dihydrochloride]
prevention of lethal septic shock [3]: prevents lethal septic shock
